In article PMC3260207, “Site-Directed Mutations and the Polymorphic Variant Ala160Thr in the Human Thromboxane Receptor Uncover a Structural Role for Transmembrane Helix 4” (PLoS ONE, 2012):
Numbering of substitutions follows the chain as printed.

Experiments:
Experiment in all cases: Saturation radioligand binding with [3H] SQ 29,548, membranes
Settings in all cases: picomoles of TP per milligram of total membrane protein, mean ± S.E
TP A160S mutant = target: T1, TP A160S mutant (Homo sapiens, UniProt P21731, A160S)
T1 construct: expressed in transfected cells; HEK293T (calcium assays)
T1 sequence (P21731 1-343 A160S): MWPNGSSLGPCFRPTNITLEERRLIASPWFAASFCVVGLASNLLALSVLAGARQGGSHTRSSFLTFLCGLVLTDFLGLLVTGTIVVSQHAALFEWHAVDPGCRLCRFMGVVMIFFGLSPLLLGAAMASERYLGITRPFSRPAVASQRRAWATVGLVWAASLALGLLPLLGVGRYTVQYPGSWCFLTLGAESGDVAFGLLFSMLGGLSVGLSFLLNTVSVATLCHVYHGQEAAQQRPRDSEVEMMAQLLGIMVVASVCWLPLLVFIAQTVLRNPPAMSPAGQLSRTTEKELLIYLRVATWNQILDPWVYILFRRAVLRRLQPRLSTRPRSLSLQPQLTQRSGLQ
Experimental: (§1) Amino acid substitutions were introduced into the synthetic TPα gene carried by the expression vector pMT4 as described previously, [29]. DNA sequences of all the mutated genes were verified by automated DNA sequencing. To minimize variations in transfection efficiency, the total amount transfected DNA was kept constant in all cases at 1 µg of DNA per 7×10^5 cells. The wild type TP or mutant genes were expressed in COS-1 cells using a DEAE-dextran based transient transfection method, [29], and in HEK293T cells using lipofectamine 2000 (Invitrogen). Except unless specified, the membranes prepared from COS-1 cells were used for radioligand binding assays and immunoblots. For intracellular calcium determination assays and immunofluorescence imaging, HEK293T cells were used. For transient transfections of HEK293T cells using the plasmid pMT4, lipofectamine 2000 (Invitrogen) mediated transfection was used as described by the manufacturer. Membranes were prepared using Buffers A and B and as described previously, [29]. The protein concentration in the resuspended membrane pellet was determined using a modified DC protein assay kit from Bio-Rad Laboratories (Hercules, CA).
(§2) These were carried out in Buffer C for 60 min at room temperature, using 2 to 20 µg of membrane protein and different concentrations of [^3H] […] Binding of [^3H] […] Competition binding assays were performed using 4 nM [^3H] […] Binding was terminated by filtering under vacuum on GF/A filters (Millipore). Filter-bound radioactivity was measured using a liquid scintillation counter. Equilibrium dissociation constants (Kd) were determined from saturation isotherms using PRISM software version 5.0 (GraphPad Software Inc, San Diego, CA, USA). The Ki values were calculated from the IC50, using the equation of Cheng and Prusoff by PRISM software version 5.0.

TP F107A mutant = target: T2, TP F107A mutant (Homo sapiens, UniProt P21731, F107A)
T2 construct: expressed in transfected cells; HEK293T (calcium assays)
T2 sequence (P21731 1-343 F107A): T1 sequence (P21731 1-343 A160S) with F107A, S160A
Experimental: as §1, §2

TP G164A mutant = target: T3, TP G164A mutant (Homo sapiens, UniProt P21731, G164A)
T3 construct: expressed in transfected cells; HEK293T (calcium assays)
T3 sequence (P21731 1-343 G164A): T1 sequence (P21731 1-343 A160S) with S160A, G164A
Experimental: as §1, §2

[1] = target: T4, WT-TP (wild type human thromboxane A2 receptor TPα) (Homo sapiens, UniProt P21731)
T4 construct: expressed in transfected cells; HEK293T (calcium assays)
T4 sequence (P21731 1-343): T1 sequence (P21731 1-343 A160S) with S160A
Experimental: as §1, §2

O=C(O)CCC/C=C\C[C@@H]1[C@H](CNNC(=O)Nc2ccccc2)[C@H]2CC[C@@H]1O2 [SQ 29,548]
Bmax, binding maximum of the ligand SQ 29,548 for the receptor (TP A160S mutant): 5.8 ± 0.5 pmol/mg | Bmax, binding maximum of the ligand SQ 29,548 for the receptor (TP F107A mutant): 1.8 ± 0.2 pmol/mg | Bmax, binding maximum of the ligand SQ 29,548 for the receptor (TP G164A mutant): 6.3 ± 0.4 pmol/mg | Bmax, binding maximum of the ligand SQ 29,548 for the receptor [1]: 3.8 ± 0.3 pmol/mg
